Measured values from patent US6451801B1, “Compounds and methods for treatment of asthma, allergy and inflammatory disorders” (UCB, S.A., priority 1999, dated 2002).

What was measured:
human cloned H1 receptor = biological target: T1, human cloned H1 receptor (Homo sapiens, UniProt P35367); test: CHO-K1 H1R binding assay; conditions: 3H-pyrilamine 2 nM, CHO-K1 membranes, 3 hours at 37° C.; read-out: CHOH1 K1
T1 construct: expressed in transfected cells; host or cells: CHO-K1
Procedure: CHO-K1 cells expressing the human cloned H1 receptor are grown to confluence in tissue culture dishes. Cells are harvested using D-PBS buffer (JRH Biosciences), kept at 4° C., centrifuging to pellet cells (4° C., 500 g, 10 min). The final cell pellet is homogenized and resuspended using Tris/sucrose buffer (20 mM Tris, 250 mM sucrose, pH 7.4 at 4° C.). Aliquots of the membrane preparation are stored at −70° C.
On the day of assay, the membrane preparation is thawed and centrifuged (TLA100.3 rotor, 4° C., 15 min, 23,000 rpm). The pellet is resuspended in Tris/sucrose buffer initially and then diluted further as necessary using assay buffer A (50 mM Na/KPO4, 2 mM MgCl2, 0.5% (w/v) BSA, pH 7.5).
For the binding assay, the membrane preparation, test compound and ^3H-pyrilamine (2 nM final) in buffer A with 1% (v/v) DMSO final are incubated in a 96-well polypropylene plate for 3 hours at 37° C. Non-specific binding is determined in the presence of 10 μM pyrilamine. A 96-well harvester (Packard) is used to harvest the 96-well plate onto a GF/B filter plate pre-treated with 0.1% (v/v) PEI. The plate is counted in a Packard Topcounter after adding Microscint 20 (Packard) scintillation fluid. The Ki for each compound at the histamine H1 receptor is then calculated from these counts.

[1] = biological target: T2, human 5-lipoxygenase enzyme (Homo sapiens, UniProt P09917); test: Inhibition of LTB4 production in human whole blood; type: cell-based; conditions: human whole blood, calcium ionophore A23187 50 μM, LTB4 by EIA; read-out: HWB IC50
T2 construct: endogenous in cells; host or cells: human whole blood (leukocytes) stimulated with A23187
T2 sequence (P09917 1-674): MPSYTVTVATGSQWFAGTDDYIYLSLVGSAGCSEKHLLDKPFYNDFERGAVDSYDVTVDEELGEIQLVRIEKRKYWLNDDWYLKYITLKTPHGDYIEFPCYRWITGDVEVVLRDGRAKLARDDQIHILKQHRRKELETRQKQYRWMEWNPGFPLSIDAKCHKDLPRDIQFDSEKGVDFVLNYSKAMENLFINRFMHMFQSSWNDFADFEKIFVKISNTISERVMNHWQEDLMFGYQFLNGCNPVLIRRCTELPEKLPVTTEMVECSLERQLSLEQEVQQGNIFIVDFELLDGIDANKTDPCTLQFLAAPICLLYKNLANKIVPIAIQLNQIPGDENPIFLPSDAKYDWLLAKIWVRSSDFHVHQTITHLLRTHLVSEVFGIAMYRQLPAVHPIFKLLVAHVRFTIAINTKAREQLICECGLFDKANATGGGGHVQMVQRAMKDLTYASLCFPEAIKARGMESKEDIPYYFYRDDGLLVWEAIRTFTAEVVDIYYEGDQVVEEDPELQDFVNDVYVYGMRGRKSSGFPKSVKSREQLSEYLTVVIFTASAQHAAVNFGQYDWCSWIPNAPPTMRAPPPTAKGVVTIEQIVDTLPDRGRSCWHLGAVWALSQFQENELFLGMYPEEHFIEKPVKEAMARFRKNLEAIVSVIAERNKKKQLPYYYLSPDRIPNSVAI
Procedure: This assay examines the ability of a compound to inhibit leukotriene B4 production from human blood stimulated with calcium ionophore. As this production of leukotriene B4 is mediated via the activation of the 5-lipoxygenase enzyme, this assay is predictive of a compound's ability to inhibit the human 5-lipoxygenase enzyme.
The procedure for the assay is as follows. Blood is drawn from normal human volunteers into tubes containing heparin. 1 ml of the heparinized blood is pipetted into a 1.5 ml polypropylene tube. To this sample is added either different concentrations of the test compound (5 μl) dissolved in DMSO or 5 μl of DMSO as a vehicle control. These samples are incubated in a water bath, at 37° C. for 15 min. 5 μl of the calcium ionophore A23187 (at a final concentration of 50 μM) is then added to each sample, which is vortexed and placed back in the water bath for 30 min. The samples are then centrifuged at 2500 rpm for 10 min. at 4° C. 50 μl of the supernatant is transferred into pre-cooled Eppendorf tubes containing 950 μl of enzyme immunoassay (EIA) buffer. A commercially available EIA kit (Cayman Chemical Co., Ann Arbor, Mich., USA) is used to subsequently measure the LTB4 production in the samples. The LTB4 levels produced in the vehicle control sample is then compared to those in which the test compound has been added. From this a percent inhibition of LTB4 production by each concentration of test compound is calculated and the IC50 for inhibition of LTB4 production for each test compound is determined.

[2] = tested on: histamine-induced bronchoconstriction; test: Antihistaminergic activity in vivo (histamine-induced bronchoconstriction); conditions: Cavia porcellus, guinea pig, oral, 2 mg/kg
Procedure: Male, Hartley guinea pigs are obtained from Charles River Labs at a body weight of 350 -400 grams. Inhibition of histamine activity is measured by the method of Konzett and Rössler (Naonyn-Schmiedebergs Arch. Exp. Path. Pharmakol. 195, 71-74 (1940). Anaethetized guinea pigs are subjected to artificial ventilation. The endotracheal pressure is recorded. Bronchoconstriction is induced by successive intravenous injections of histamine. The test compounds are administered orally in a 1% methocellulose suspension at set timepoints prior to the administration of histamine.
The results (Table 2) show the percent inhibition of histamine-induced bronchoconstriction by selected compounds at multiple time points post oral dosing. 50% inhibition or greater is considered significant.

5-lipoxygenase = test: 5-Lipoxygenase inhibitory activity in vivo; conditions: guinea pig, oral, 2 mg/kg
Procedure: Male, Hartley guinea pigs are obtained from Charles River Labs at a body weight of 350-400 grams. Compounds are prepared at a volume of [1-2 mg/ml] in 1% methocellulose for oral dosing. Animals are separated into groups of five (5). Each assay includes a control group dosed with vehicle. Each group of animals is dosed with either vehicle or compound by oral gavage. Animals are allowed to rest for one, three, or six hours after dosing. Control animals are allowed to rest for three hours. At the appropriate times, the animals are anesthetized with Urethane at 1.5 g/kg, ip. Blood is drawn into a heparinized syringe via cardiac puncture. Blood (0.5 ml) is aliquoted into separately-labeled 1.5 ml eppendorf tubes. Each sample is loaded with 5 μl of [15 mM] Arachidonic Acid, and placed in a 37° C. water bath for five minutes. After five minutes, the blood is stimulated with 5 μl of [5 mM] A23187 (Calcium Ionophore) and retained in the water bath for an additional 30 minutes. After the thirty minutes, the blood samples are removed from the water bath and centrifuged at 14,000 rpm for 2 minutes. Plasma is diluted to EIA buffer and an EIA is performed following manufacturer instructions (Cayman Chemical Co., Ann Arbor, Mich., USA). The results (Table 3) show the percent inhibition of 5-lipoxygenase by selected compounds at multiple time points post oral dosing. 50% inhibition or greater is considered significant.

T1 sequence (P35367 whole entry): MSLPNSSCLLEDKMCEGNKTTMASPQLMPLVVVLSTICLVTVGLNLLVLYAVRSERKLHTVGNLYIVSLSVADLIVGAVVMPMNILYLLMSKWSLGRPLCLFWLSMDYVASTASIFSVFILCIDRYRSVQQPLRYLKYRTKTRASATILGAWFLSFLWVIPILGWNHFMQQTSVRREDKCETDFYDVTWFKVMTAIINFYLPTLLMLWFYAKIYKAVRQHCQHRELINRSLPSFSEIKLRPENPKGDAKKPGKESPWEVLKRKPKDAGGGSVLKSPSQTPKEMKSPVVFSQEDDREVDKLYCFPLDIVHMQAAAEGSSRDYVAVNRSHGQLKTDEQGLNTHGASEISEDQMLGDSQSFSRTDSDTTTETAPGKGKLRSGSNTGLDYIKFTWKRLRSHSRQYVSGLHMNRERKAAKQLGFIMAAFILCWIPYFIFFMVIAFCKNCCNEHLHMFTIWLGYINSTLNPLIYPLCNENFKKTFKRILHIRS

| Ki (human cloned H1 receptor) [nM] | IC50 [1] [nM] | Molecule | inhibition in vivo at 2 mg/kg ([2]; 3 hrs) [%] | inhibition in vivo at 2 mg/kg ([2]; 6 hrs) [%] | % inhibition of 5-lipoxygenase (5-lipoxygenase; 1 hour) [%] | % inhibition of 5-lipoxygenase (5-lipoxygenase; 6 hours) [%] |
| --- | --- | --- | --- | --- | --- | --- |
| 7 | 253 | CN(O)C(=O)NCc1cccc(OCCN2CCN([C@H](c3ccccc3)c3ccc(Cl)cc3)CC2)c1 [Compound 24, N-{[3-(2-{4-[(1R) (4-chlorophenyl)phenylmethyl]piperazinyl}ethoxy)phenyl]methyl} (methyl(hydroxyamino)) carboxamide] | – | – | – | – |
| 420 | 94 | COC(=O)c1cc(C#CCCN(O)C(N)=O)ccc1OCCN1CCN([C@H](c2ccccc2)c2ccc(Cl)cc2)CC1 [Compound 36, methyl2-(2-{4-[(1R) (4-chlorophenyl)phenyl-methyl]piperazinyl}ethoxy)-5-[4-(amino-hydroxycarbonylamino)but-1-ynyl]benzoate] | – | – | – | – |
| 36 | 412 | NC(=O)N(O)CCCCc1cccc(OCCN2CCN(C(c3ccccc3)c3ccccc3)CC2)c1 [Compound 30, amino-N-[4-(3-{2-[4-(diphenylmethyl)piperazinyl]ethoxy}phenyl)butyl]-N-hydroxyamide] | – | – | – | – |
| 120 | 122 | COC(=O)c1cc(CCCCN(O)C(N)=O)ccc1OCCN1CCN([C@H](c2ccccc2)c2ccc(Cl)cc2)CC1 [Compound 40, methyl2-(2-{4-[(1R) (4-chlorophenyl)phenyl-methyl]piperazinyl}ethoxy)-5-[4-(amino-hydroxycarbonylamino)butyl]benzoate] | – | – | – | – |
| 15 | 2100 | NC(=O)N(O)CCOCCN1CCN([C@H](c2ccccc2)c2ccc(Cl)cc2)CC1 (racemic) [Compound 18, amino-N-[2-(2-{4-[(4-chlorophenyl)phenylmethyl]piperazinyl}ethoxy)ethyl]-N-hydroxyamide] | – | – | – | – |
| 58 | 251 | NC(=O)N(O)CCC#Cc1ccc(OCCN2CCN(C(c3ccc(F)cc3)c3ccc(F)cc3)CC2)cc1[N+](=O)[O-] [Compound 87, N-{4-[4-(2-{4-[bis(4-fluorophenyl)methyl]-1-piperazinyl}ethoxy)-2-nitrophenyl]-3-butynyl)-N-hydroxyurea] | 66 | 73 | 70 | 94 |
| 2 | 2740 | NC(=O)N(O)CCCCc1ccc(OCCN2CCN([C@H](c3ccccc3)c3ccc(Cl)cc3)CC2)c(C(=O)O)c1 [Compound 43, 2-(2-{4-[(1R)(4-chlorophenyl)phenylmethyl]piperazinyl}ethoxy)-5-[4-(aminohydroxycarbonylamino)butyl] benzoic acid] | – | – | – | – |
| 8 | 1470 | N-[2-(2-{4-[(1R)(4-chlorophenyl)phenylmethyl] piperazinyl}ethoxy)ethyl]amino-N-hydroxyamide [Compound 22] | – | – | – | – |
| 220 | 5770 | NC(=O)N(O)Cc1cccc(C#CCN2CCN([C@H](c3ccccc3)c3ccc(Cl)cc3)CC2)c1 [Compound 8, N-{[3-(3-{4-[(1R) (4-chlorophenyl)phenylmethyl]piperazinyl}prop-1-ynyl)phenyl]methyl} amino-N-hydroxyamide] | – | – | – | – |
| 23 | 2040 | NC(=O)N(O)Cc1cccc(OCCN2CCN([C@H](c3ccccc3)c3ccc(Cl)cc3)CC2)c1 [Compound 5, N-{[3-(2-{4-[(1R) (4-chlorophenyl)phenylmethyl]piperazinyl}ethoxy)phenyl]methyl} amino-N-hydroxyamide] | – | – | – | – |
| 4 | 6590 | NC(=O)N(O)CCC#Cc1ccc(OCCN2CCN([C@H](c3ccccc3)c3ccc(Cl)cc3)CC2)c(C(=O)O)c1 [Compound 37, 2-(2-{4-[(1R)(4-chlorophenyl)phenyl-methyl]piperazinyl}ethoxy)-5-[4-(amino-hydroxycarbonylamino)but-1-ynyl]benzoic acid] | – | – | – | – |
| – | 267 | NC(=O)N(O)CCC#Cc1ccc(OCCN2CCN([C@H](c3ccccc3)c3ccc(Cl)cc3)CC2)cc1 [Compound 12, N-{4-[4-(2-{4-[(1R) (4-chlorophenyl)phenylmethyl]piperazinyl}ethoxy)phenyl]but-3-ynyl} amino-N-hydroxyamide] | 62 | 66 | – | 80 |
| 10 | 2440 | NC(=O)N(O)Cc1ccc(CCCN2CCN([C@H](c3ccccc3)c3ccc(Cl)cc3)CC2)cc1 [Compound 13, N-{[4-(3-{4-[(1R) (4-chlorophenyl)phenylmethyl]piperazinyl}propyl)phenyl]methyl} amino-N-hydroxyamide] | – | – | – | – |
| 133 | 313 | NC(=O)N(O)CCC#C[C@@H]1CC[C@@H](CN2CCN([C@H](c3ccccc3)c3ccc(Cl)cc3)CC2)O1 [Compound 46, N-{4-[5-({4-[(1R)(4-chlorophenyl)phenylmethyl]piperazinyl}methyl)(2S,5S)oxolan-2-yl]but-3-ynyl}amino-N-hydroxyamide] | – | – | – | – |
| 12 | 4220 | NC(=O)N(O)CC#CCN1CCN([C@H](c2ccccc2)c2ccc(Cl)cc2)CC1 [Compound 9, N-(4-{4-[(1R) (4-chlorophenyl)phenylmethyl]piperazinyl}but-2-ynyl) amino-N-hydroxyamide] | – | – | – | – |
| 94 | 2660 | NC(=O)N(O)CC#CCN1CCN(C(c2ccc(F)cc2)c2ccc(F)cc2)CC1 [Compound 16, amino-N-(4-{4-[bis(4-fluorophenyl)methyl]piperazinyl}but-2-ynyl)-N-hydroxyamide] | – | – | – | – |
| 35 | 106 | NC(=O)c1cc(CCCCN(O)C(N)=O)ccc1OCCN1CCN([C@H](c2ccccc2)c2ccc(Cl)cc2)CC1 [Compound 42, 2-(2-{4-[(1R)(4-chloro-phenyl)phenylmethyl]piperazinyl}ethoxy)-5-[4-(aminohydroxy-carbonylamino)butyl] benzamide] | – | – | – | – |
| 260 | 1680 | NC(=O)N(O)Cc1ccc(C#CCN2CCN([C@H](c3ccccc3)c3ccc(Cl)cc3)CC2)cc1 [Compound 3, N-{[4-(3-{4-[(1R) (4-chlorophenyl)phenylmethyl]piperazinyl}prop-1-ynyl)phenyl]methyl} amino-N-hydroxyamide] | – | – | – | – |

| Molecule | Ki (human cloned H1 receptor) [nM] | IC50 [1] [nM] | inhibition in vivo at 2 mg/kg ([2]; 3 hrs) [%] | inhibition in vivo at 2 mg/kg ([2]; 6 hrs) [%] | % inhibition of 5-lipoxygenase (5-lipoxygenase; 1 hour) [%] | % inhibition of 5-lipoxygenase (5-lipoxygenase; 6 hours) [%] |
| --- | --- | --- | --- | --- | --- | --- |
| NC(=O)N(O)Cc1ccc(CN2CCN([C@H](c3ccccc3)c3ccc(Cl)cc3)CC2)o1 [Compound 26, N-{[5-({4-[(1R) (4-chlorophenyl)phenylmethyl]piperazinyl}methyl)(2-furyl)]methyl} amino-N-hydroxyamide] | 4 | 1710 | – | – | – | – |
